{"source": "patent US20150238460A1", "about": "“Methods and Compositions For Treating Hepatocellular Carcinoma” (priority 2012, published 2015)", "key": {"[1]": {"test_system": "advanced, unresectable HCC (various cancers in whole group)", "test": "Phase I trial G-202-001, expansion group with modified dosing regimen", "type": "in vivo, human", "conditions": "fifth HCC patient", "excerpt": "Virtually all anti-cancer agents have the potential to cause infusion reactions, which are reactions that may be allergic or non-allergic in nature and not related to the known toxicity profile of the agent. Infusion reactions are usually thought of as hypersensitivity reactions, despite the absence of an allergic component in many cases.\nEndpoints evaluated in the expansion group included safety, tumor response rate, progression-free survival, and overall survival. Additional secondary endpoints included exploration of pharmacodynamic markers associated with various cancers. Assessments were routinely performed during therapy and following therapy if toxicity was the reason therapy was discontinued.\nThe only FDA-approved therapy for patients with unresectable HCC is sorafenib tosylate, otherwise known as Nexavar® and/or by the chemical name: 4-(4-{3-[4-Chloro-3-(trifluoromethyl)phenyl]ureido}phenoxy)N2methylpyridine-2-carboxamide 4-methylbenzenesulfonate."}, "[2]": {"test_system": "progressive advanced hepatocellular carcinoma (HCC)", "conditions": "two of four patients, no improvement on therapy"}, "[3]": {"test_system": "Sarcoplasmic/Endoplasmic Reticulum Calcium ATPase (SERCA) pump", "conditions": "cited from earlier work"}, "[4]": {"test_system": "advanced hepatocellular carcinoma", "conditions": "cited from earlier work"}, "[5]": {"test_system": "advanced hepatocellular carcinoma", "conditions": "Asian-Pacific trial, advanced HCC; cited from earlier work"}}, "note": "Like-named read-outs stand apart in the source and are kept apart here."}
{"compound": "8-O-(12-aminododecanoyl)-debutanoyl-thapsigargin aspartate-glutamate-γ-glutamate-γ-glutamate-γ-glutamate OH [G-202]", "values": [{"measurement": "time without disease progression after ceasing treatment", "setting": "[1]", "result": "more than four"}, {"measurement": "disease progression reached after number of cycles", "setting": "[2]", "result": "no more than two"}]}
{"compound": "C/C=C(/C)C(=O)O[C@H]1C(C)=C2[C@H]([C@@H]1OC(=O)CCCCCCC)[C@@](C)(OC(C)=O)C[C@H](OC(=O)CCC)[C@@]1(O)[C@H]2OC(=O)[C@@]1(C)O", "note": "[Thapsigargin]", "values": [{"measurement": "affinity of binding to SERCA pump", "setting": "[3]", "result": "high affinity"}]}
{"compound": "CNC(=O)c1cc(Oc2ccc(NC(=O)Nc3ccc(Cl)c(C(F)(F)F)c3)cc2)ccn1.Cc1ccc(S(=O)(=O)O)cc1", "note": "[sorafenib, 4-(4-{3-[4-Chloro-3-(trifluoromethyl)phenyl]ureido}phenoxy)N2methylpyridine-2-carboxamide 4-methylbenzenesulfonate]", "values": [{"measurement": "disease progression on prior sorafenib treatment after", "setting": "[1]; before G-202", "result": 3, "unit": "months"}, {"measurement": "time to radiologic progression", "setting": "[4]; SHARP Trial, patients with advanced HCC, no prior systemic treatment", "result": 5.5, "unit": "months"}, {"measurement": "overall survival", "setting": "[4]; SHARP Trial, patients with advanced HCC", "result": 10.7, "unit": "months"}, {"measurement": "average time to disease progression after beginning sorafenib treatment", "setting": "[4]; clinical trial of 602 patients with HCC (Llovet 2008)", "result": "approximately six"}, {"measurement": "median overall survival", "setting": "[5]", "result": 6.5, "unit": "months"}, {"measurement": "time to radiologic progression", "setting": "[5]", "result": 2.8, "unit": "months"}]}
